Results reported in patent US10745363B2 (NORATECH PHARMACEUTICALS, INC., priority 2016, dated 2020).
Counter-ions that a name gives are not always drawn. Each block holds one molecule with its values, some of them ahead of it.

Assays:
[1] = Determination of hygroscopicity (water absorption in open weighing bottle, artificial climate chamber); assay type: physicochemical; details: 25±1° C., relative humidity 43.5±2%; for Water absorption, %: open weighing bottle, disodium salt
Method: 1. Take a dry stuffed glass weighing bottle (outer diameter 50 mm, height 15 mm) in the artificial climate chamber (set temperature is 25±1° C., relative humidity is 43.5±2%) and weight it (m1).
2. Take the appropriate amount of the crystalline form in the present invention, and place it in the abovementioned weighing bottle and lay it inside the weighing bottle. The thickness of the test sample is generally about 1 mm. Weight the sample (m2).
3. Uncover the weighing bottle and place it with the bottle cap under constant temperature and humidity (set temperature is 25±1° C., relative humidity is 43.5±2%).
4. Put the cap back on the weighing bottle before weighing, and then weight it (m3). The water absorption percentage for each time point is calculated by the formula=(m3−m2)/(m2−m1)×100%.

[2] = cited from earlier work

Water absorption, % ([1]; 2 h, listed as A): 1.6%
water absorption ([1]; 3 hours, open container): 2.6%
Water absorption, % ([1]; 4 h, listed as A): 2.0%
Water absorption, % ([1]; 24 h, listed as A): 2.4%
Structure (SMILES): CCCCC(=O)N(Cc1ccc(-c2ccccc2-c2nnn[nH]2)cc1)[C@H](C(=O)O)C(C)C [Crystalline form A, valsartan disodium salt]

Water absorption, % ([1]; 2 h, listed as B): 1.9%
Water absorption, % ([1]; 4 h, listed as B): 2.3%
Water absorption, % ([1]; 24 h, listed as B): 3.0%
Structure (SMILES): CCCCC(=O)N(Cc1ccc(-c2ccccc2-c2nnn[nH]2)cc1)[C@H](C(=O)O)C(C)C [Crystalline form B, valsartan disodium salt]

Water absorption, % ([1]; 2 h, listed as F): 1.7%
Water absorption, % ([1]; 4 h, listed as F): 2.2%
Water absorption, % ([1]; 24 h, listed as F): 2.8%
Structure (SMILES): CCCCC(=O)N(Cc1ccc(-c2ccccc2-c2nnn[nH]2)cc1)[C@H](C(=O)O)C(C)C [Crystalline form F, valsartan disodium salt]

Water absorption, % ([1]; 2 h, listed as E): 2.1%
Water absorption, % ([1]; 4 h, listed as E): 2.9%
Water absorption, % ([1]; 24 h, listed as E): 3.6%
Structure (SMILES): CCCCC(=O)N(Cc1ccc(-c2ccccc2-c2nnn[nH]2)cc1)[C@H](C(=O)O)C(C)C [Crystalline form E, valsartan disodium salt]

Water absorption, % ([1]; 2 h, listed as G): 0.7%
Water absorption, % ([1]; 4 h, listed as G): 1.3%
Water absorption, % ([1]; 24 h, listed as G): 1.5%
Structure (SMILES): CCCCC(=O)N(Cc1ccc(-c2ccccc2-c2nnn[nH]2)cc1)[C@H](C(=O)O)C(C)C [Crystalline form G, valsartan disodium salt]

Second part, the molecule before the results:

Structure (SMILES): CCCCC(=O)N(Cc1ccc(-c2ccccc2-c2nnn[nH]2)cc1)[C@H](C(=O)O)C(C)C [Crystalline form D, valsartan disodium salt]
Water absorption, % ([1]; 2 h, listed as D): 1.3%
Water absorption, % ([1]; 4 h, listed as D): 1.9%
Water absorption, % ([1]; 24 h, listed as D): 2.7%

Structure (SMILES): CCCCC(=O)N(Cc1ccc(-c2ccccc2-c2nnn[nH]2)cc1)[C@H](C(=O)O)C(C)C [valsartan disodium salt]
hygroscopicity ([2]; equilibrated in air, 5.36 mol H2O by elemental analysis (CN01813039.9)): up to 20%

Structure (SMILES): CCCCC(=O)N(Cc1ccc(-c2ccccc2-c2nnn[nH]2)cc1)[C@H](C(=O)O)C(C)C [Crystalline form H, valsartan disodium salt]
Water absorption, % ([1]; 2 h, listed as H): 2.0%
Water absorption, % ([1]; 4 h, listed as H): 2.8%
Water absorption, % ([1]; 24 h, listed as H): 4.0%

Structure (SMILES): CCCCC(=O)N(Cc1ccc(-c2ccccc2-c2nnn[nH]2)cc1)[C@H](C(=O)O)C(C)C [Valsartan sodium salt]
hygroscopicity (in words) ([2]; background statement): hygroscopic
